Earlier results in patent US20210198629A1, “COMPOSITIONS AND METHODS FOR INCREASING BEIGING OF WHITE ADIPOSE TISSUE” (University of Georgia Research Foundation, Inc., priority 2018, published 2021).
Read-outs that look alike come from different tables or passages of the source.

Legend:
[1] = tested on: Ucp1; conditions: cited from earlier work
[2] = molecular target: T1, BRD9 (Homo sapiens, UniProt Q9H8M2); conditions: cited from earlier work
T1 sequence (Q9H8M2 1-597): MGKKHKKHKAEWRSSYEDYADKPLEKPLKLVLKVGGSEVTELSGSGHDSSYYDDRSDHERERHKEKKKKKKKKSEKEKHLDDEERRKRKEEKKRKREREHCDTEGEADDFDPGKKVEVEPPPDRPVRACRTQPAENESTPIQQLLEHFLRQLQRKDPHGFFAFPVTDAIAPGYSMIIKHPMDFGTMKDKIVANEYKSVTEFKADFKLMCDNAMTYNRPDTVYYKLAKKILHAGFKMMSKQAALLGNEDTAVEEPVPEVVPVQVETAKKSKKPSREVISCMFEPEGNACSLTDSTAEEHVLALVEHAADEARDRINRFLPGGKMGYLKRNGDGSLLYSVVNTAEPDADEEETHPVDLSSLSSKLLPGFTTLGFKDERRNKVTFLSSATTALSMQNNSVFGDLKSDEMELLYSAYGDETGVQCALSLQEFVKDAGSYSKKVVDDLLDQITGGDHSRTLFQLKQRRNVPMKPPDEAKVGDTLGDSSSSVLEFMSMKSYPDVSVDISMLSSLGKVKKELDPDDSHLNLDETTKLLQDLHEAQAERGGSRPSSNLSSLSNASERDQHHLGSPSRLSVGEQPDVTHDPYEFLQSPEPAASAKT

[3] = tested on: rhabdoid tumor cells; conditions: combinatorial treatment with cytostatic compounds (e.g., cisplatin); cited from earlier work
[4] = tested on: EGFR mutant PC9 cancer cells; conditions: cited from earlier work

In the case of `C=C(c1ccc(C(=O)O)cc1)c1cc2c(cc1C)C(C)(C)CCC2(C)C` [Bexarotene], the “WAT beiging, increase of Ucp1” value ([1]; oral administration 50 mg/kg/d, for 28 days, only in subcutaneous WATs) is given as 1.5 fold.
In the case of `COc1ccc(Br)cc1/C=C1\SC(=O)N(Cc2ccc(C)cc2)C1=O` [GQ-16], the “WAT beiging, increase of Ucp1” value ([1]; oral administration 40 mg/kg/d, for 14 days) is given as 5 fold.
In the case of `CCn1cc(-c2cccc(C(F)(F)F)c2)c2sc(C(=N)NC3CCS(=O)(=O)CC3)cc2c1=O` [I-BRD9, N′-(1,1-dioxothian-4-yl)-5-ethyl-4-oxo-7-[3-(trifluoromethyl)phenyl]thieno[3,2-c]pyridine-2-carboximidamide], the “selectivity over the BET family” value ([2]; BRD9 vs BET family) is listed as greater than 700 fold, the “selectivity over the highly homologous BRD7” value ([2]; BRD9 vs BRD7) is listed as 200 fold and the “proliferation of rhabdoid tumor cells” value [3] is listed as “synergistically inhibit”.
In the case of `CC[C@H](CO)Nc1nc(NCc2ccccc2)c2ncn(C(C)C)c2n1` [Roscovitine], the WAT beiging ([1]; intraperitoneal injection 50 mg/kg/d for 42 days) is given as “induced WAT beiging”.
For `CCc1cc2c(c(CC)n1)CCC(=O)N2Cc1ccc(-c2ccccc2-c2nn[nH]n2)cc1` [ZD7155], the “WAT beiging, increase of Ucp1” value ([1]; intraperitoneal injection 1 mg/kg/d for 14 days) is listed as “less than 2 fold”.
In the case of `C/C=C/Cn1cc(-c2cc(OC)c(C(=O)N3CCOCC3)cc2OC)c2cc[nH]c2c1=O` [GNE-375], the drug resistance development ([4]; EGFR mutant PC9 cancer cells) is listed as “prevent the drug resistance development”, the cell viability ([4]; PC9 study) is listed as “little effects” and the “expression of ALDH1A1” value ([4]; PC9 study) is listed as “decreases”. For the same compound, the global gene expression ([4]; PC9 study) was “little effects”.
